Measurements reported in US20260286295A1, “COMPOSITION FOR INDUCING DIRECT DIFFERENTIATION OF STEM CELLS INTO CORNEAL ENDOTHELIAL CELLS AND METHOD FOR INDUCING DIRECT DIFFERENTIATION USING SAME” (THE ASAN FOUNDATION, priority 2023, published 2026).

System: iPSCs
Assay: ZO-1 immunocytochemical staining, efficiency of direct differentiation of iPSCs into CECs
Format: cell-based, human
Conditions: concluded from culture media that omit the constituent (Examples 3-4 to 3-7)
Experimental: To compare the effect on differentiation efficiency using ZO-1 marker staining of iPSC-derived CECs, CECs were fixed in 4% paraformaldehyde for 30 minutes, washed with PBS buffer, permeabilized with 0.5% Triton X-100, and blocked in PBST containing 1% bovine serum albumin (Sigma-Aldrich). […] Nuclei were counterstained for 10 minutes with 4′,6-diamidino-2-phenylindole (DAPI; Sigma-Aldrich), and fluorescence signals were detected using a laser scanning confocal microscope (Olympus, Tokyo, Japan) or a fluorescence microscope (EVOS, Life Technologies).

| Structure (SMILES) | role of the constituent in direct differentiation from iPSCs into CECs |
| --- | --- |
| Cc1cncc2cccc(S(=O)(=O)N3CCCNC[C@@H]3C)c12 [Example H-1152, (2S)-2-methyl-1-[(4-methyl-5-isoquinolinyl)sulfonyl]hexahydro-1H-1,4-diazepine] | important |
| O=S(=O)(c1cccc2cnccc12)N1CCCNCC1 [Fasudil, fasudil] | important |
| NC(=O)c1ccc(-c2nc(-c3ccc4c(c3)OCO4)c(-c3ccccn3)[nH]2)cc1 [SB431542, 4-[4-(2H-1,3-benzodioxol-5-yl)-5-(pyridin-2-yl)-1H-imidazol-2-yl]benzamide] | important |
